One may read the inhibition as the percentage by which the read-out fell short of the control. Lower therefore signals little suppression.

Structures are written as SMILES.

Type in all cases: functional
The species entered for test [1] is Rattus norvegicus. The test can be described thus: % inhibition of cyclic AMP production in homogenates of rat corpus striatum pre-incubated with 0 uM of NCA and 50 uM of DA.
For test [2], the species on record is Rattus norvegicus. Briefly: % stimulation of cyclic AMP production in homogenates of rat corpus striatum pre-incubated with 30 uM of NCA and 50 uM of DA.
For test [3], the species on record is Rattus norvegicus. The test can be described thus: % inhibition of cyclic AMP production in homogenates of rat corpus striatum pre-incubated with 30 uM of NCA and 50 uM of DA.
The species named for test [4] is Rattus norvegicus. The test can be described thus: % stimulation of cyclic AMP production in homogenates of rat corpus striatum pre-incubated with 10 uM of NCA and 0 uM of DA.
The species entered for test [5] is Rattus norvegicus. The test can be described thus: % stimulation of cyclic AMP production in homogenates of rat corpus striatum pre-incubated with 75 uM of NCA and 0 uM of DA.
Test [6] is filed under the species Rattus norvegicus. The test can be described thus: % stimulation of cyclic AMP production in homogenates of rat corpus striatum preincubated with 30 uM of NCA and 0 uM of DA.
The species named for test [7] is Rattus norvegicus. Briefly: % stimulation of cyclic AMP production in homogenates of rat corpus striatum pre-incubated with 0 uM of NCA and 50 uM of DA.
For test [8], the species on record is Rattus norvegicus. The test can be described thus: % inhibition of cyclic AMP production in homogenates of rat corpus striatum pre-incubated with 30 uM of NCA and 0 uM of DA.
For test [9], the species on record is Rattus norvegicus. The test can be described thus: % inhibition of cyclic AMP production in homogenates of rat corpus striatum pre-incubated with 0 uM of NCA and 0 uM of DA.
The species entered for test [10] is Rattus norvegicus. The test can be described thus: % inhibition of cyclic AMP production in homogenates of rat corpus striatum pre-incubated with 10 uM of NCA and 0 uM of DA.
The species named for test [11] is Rattus norvegicus. The test can be described thus: % inhibition of cyclic AMP production in homogenates of rat corpus striatum pre-incubated with 75 uM of NCA and 0 uM of DA.
The species named for test [12] is Rattus norvegicus. Briefly: % stimulation of cyclic AMP production in homogenates of rat corpus striatum pre-incubated with 0 uM of NCA and 0 uM of DA.

Take `Oc1ccc2c(c1O)-c1cccc3c1[C@@H](C2)N(CCCl)CC3`: the inhibition is 2% in the test listed under Rattus norvegicus [1]; 3% in the test listed under Rattus norvegicus [3]; 56% in the test filed under Rattus norvegicus [8]; 0% in the test filed under Rattus norvegicus [9]; 16% in the test filed under Rattus norvegicus [10]; 92% in the test listed under Rattus norvegicus [11]. Also, the Stimulation in the test listed under Rattus norvegicus [2] stood at 103%; in the test listed under Rattus norvegicus [4], 83.9%; in the test filed under Rattus norvegicus [5], 8.1%; in the test filed under Rattus norvegicus [6], 43.9%; in the test listed under Rattus norvegicus [7], 98%; in the test listed under Rattus norvegicus [12], 100%.

(Values after ChEMBL document CHEMBL1121605, “Aporphines. 30. (-)-N(2-chloroethyl)-10,11-dihydroxynor-aporphine (chloroethylnorapomorphine), a novel irreversible dopamine receptor antagonist” (J Med Chem, 1980).)
